Data published in patent publication US7563798B2, “Substituted pyrazolo[1,5-a]pyrimidines as protein kinase inhibitors” (Schering Corporation, priority 2002, dated 2009).

Target: T1, Cyclin E/CDK2 (Homo sapiens, UniProt P24941)
T1 construct: made in house; host or cells: SF9 insect cells (baculovirus co-infection)
Experiment: Cyclin E/CDK2 in vitro kinase assay (33P-ATP, SPA beads)
Type: biochemical

Row | Compound | IC50 [µM]
1 | Cc1cc(Nc2cc(N3CC(N)C3)nc3c(-c4cnn(C)c4)cnn23)sn1 | 6.7
2 | Cc1cc(Nc2cc(C3CCCNC3)nc3c(-c4cncs4)cnn23)sn1 (centres unmarked) | 3.3
3 | Cc1cc(Nc2cc(C3CCCNC3)nc3c(Br)cnn23)sn1 (centres unmarked) | 0.076
4 | Cc1cc(Nc2cc(C3CCCNC3)nc3c(-c4cnn(C)c4)cnn23)sn1 (centres unmarked) | 46
5 | Cc1cc(Nc2cc(N3CC[C@@H](N)C3)nc3c(-c4cnn(C)c4)cnn23)sn1 | 49
6 | Cc1cc(Nc2cc(C3CNCCS3)nc3c(-c4cnn(C)c4)cnn23)sn1 (centres unmarked) | 40
7 | Cc1cc(Nc2cc(C3CCCNC3)nc3c(-c4coc(C#N)c4)cnn23)sn1 (centres unmarked) | 3.6
8 | Cc1cc(Nc2cc(C3CCCNC3)nc3c(-c4coc(C=NO)c4)cnn23)sn1 (centres unmarked) | 0.05
